Laboratory results published in article PMC3914206.

Assays:
panel of 442 kinases [1] = molecular target: T1, panel of 442 kinases (Homo sapiens, UniProt Q8NE63); type: binding; conditions: Compound Concentration 10 µM
T1 construct: purchased KINOMEscan
T1 sequence (Q8NE63 1-616): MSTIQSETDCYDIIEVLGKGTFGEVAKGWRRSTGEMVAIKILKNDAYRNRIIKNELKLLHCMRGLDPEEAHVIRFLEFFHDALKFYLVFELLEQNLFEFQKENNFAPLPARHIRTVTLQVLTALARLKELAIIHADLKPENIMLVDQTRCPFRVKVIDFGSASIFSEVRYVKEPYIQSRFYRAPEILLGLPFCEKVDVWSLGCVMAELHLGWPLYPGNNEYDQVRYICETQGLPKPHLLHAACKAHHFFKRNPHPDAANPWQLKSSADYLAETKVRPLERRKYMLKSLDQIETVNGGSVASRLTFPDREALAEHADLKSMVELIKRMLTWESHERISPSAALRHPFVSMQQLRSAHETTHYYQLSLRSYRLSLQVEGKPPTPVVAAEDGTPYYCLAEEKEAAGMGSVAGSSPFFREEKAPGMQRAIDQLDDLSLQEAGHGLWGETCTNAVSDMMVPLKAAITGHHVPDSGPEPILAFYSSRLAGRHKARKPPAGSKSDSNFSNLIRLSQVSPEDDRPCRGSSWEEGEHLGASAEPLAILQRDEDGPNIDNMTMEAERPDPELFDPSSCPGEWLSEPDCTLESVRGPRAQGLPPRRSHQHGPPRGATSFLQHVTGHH
Source text: (§1) We assessed the selectivity of members of this scaffold using the KINOMEscan methodology across a near comprehensive panel of 442 kinases [[18,27]].

panel of 442 kinases [2] = molecular target: T2, panel of 442 kinases (Homo sapiens, UniProt P54753); type: binding; conditions: Compound Concentration 10 µM
T2 construct: purchased KINOMEscan
T2 sequence (P54753 34-998): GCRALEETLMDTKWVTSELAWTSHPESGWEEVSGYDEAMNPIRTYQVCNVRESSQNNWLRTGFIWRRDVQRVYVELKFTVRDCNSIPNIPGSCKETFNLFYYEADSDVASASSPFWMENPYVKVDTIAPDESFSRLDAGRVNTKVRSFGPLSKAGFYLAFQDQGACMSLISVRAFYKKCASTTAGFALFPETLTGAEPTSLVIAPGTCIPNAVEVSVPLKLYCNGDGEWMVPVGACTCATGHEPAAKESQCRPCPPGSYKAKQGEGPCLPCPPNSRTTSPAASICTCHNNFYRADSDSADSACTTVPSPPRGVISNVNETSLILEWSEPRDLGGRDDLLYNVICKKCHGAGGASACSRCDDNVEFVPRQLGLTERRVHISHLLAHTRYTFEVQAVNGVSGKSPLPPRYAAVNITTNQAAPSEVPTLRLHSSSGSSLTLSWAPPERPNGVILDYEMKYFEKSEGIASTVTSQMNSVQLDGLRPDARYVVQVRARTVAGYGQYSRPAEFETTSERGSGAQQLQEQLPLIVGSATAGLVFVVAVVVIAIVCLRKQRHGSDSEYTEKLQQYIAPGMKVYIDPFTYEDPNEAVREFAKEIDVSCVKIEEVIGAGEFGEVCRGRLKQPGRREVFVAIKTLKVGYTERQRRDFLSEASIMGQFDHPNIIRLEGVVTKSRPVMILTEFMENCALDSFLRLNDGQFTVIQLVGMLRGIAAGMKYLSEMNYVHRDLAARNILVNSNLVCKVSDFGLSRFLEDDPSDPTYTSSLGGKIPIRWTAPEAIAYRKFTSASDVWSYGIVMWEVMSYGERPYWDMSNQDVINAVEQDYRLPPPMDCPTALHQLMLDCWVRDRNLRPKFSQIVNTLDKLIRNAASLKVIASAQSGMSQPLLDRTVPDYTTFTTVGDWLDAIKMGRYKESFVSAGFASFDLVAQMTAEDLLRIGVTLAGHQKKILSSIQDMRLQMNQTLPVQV
Source text: as §1

| Compound | KINOMEscan: HIPK4 (panel of 442 kinases [1]) | KINOMEscan: EPHB3 (panel of 442 kinases [2]) |
| --- | --- | --- |
| COc1cc(C(=O)N2CCC(N3CCN(C)CC3)CC2)ccc1Nc1ncc2c(n1)N(C)c1ccccc1C(=O)N2C [15 (LRRK2-IN-1)] | 100 | 100 |
| COc1cc(C(=O)N2CCC(N3CCN(C)CC3)CC2)ccc1Nc1ncc2c(n1)N1CCc3cccc(c31)C(=O)N2C [Compound 24] | 50 | – |
| COc1cc(C(=O)N2CCC(N3CCN(C)CC3)CC2)ccc1Nc1ncc2c(n1)N(C1CCCC1)c1ccccc1C(=O)N2C [Compound 25, 11-cyclopentyl-2-((2-methoxy-4-(4-(4-methylpiperazin-1-yl)piperidine-1-carbonyl)phenyl)amino)-5-methyl-5H-benzo[e]pyrimido[5,4-b][1,4]diazepin-6(11H)-one] | 87 | 96 |
| CCOc1cc(C(=O)N2CCC(N3CCN(C)CC3)CC2)ccc1Nc1ncc2c(n1)N(C1CCCC1)c1ccccc1C(=O)N2C [Compound 26] | 100 | 100 |
